Source: patent US9944654B2, “Nargenicin compounds and uses thereof as antibacterial agents” (priority 2014, dated 2018)

Legend:
[1] = tested on: Staphylococcus aureus MB6266 (MRSA COL); experiment: Nargenicin antibacterial assay (MIC), S. aureus; type: cell-based; conditions: MHII broth + 50% human serum; * = some reduction of growth versus control at […]
[2] = tested on: Streptococcus pneumoniae MB6357 (CL 2883); experiment: Nargenicin antibacterial assay (MIC), S. pneumoniae; type: cell-based; conditions: Isosensitest broth; * = some reduction of growth versus control at […]
[3] = tested on: Pseudomonas aeruginosa MB5890 (CB1101, efflux-deleted); experiment: microbe, parasite or virus in culture; type: cell-based; conditions: MHII broth; * = some reduction of growth versus control at […]
[4] = tested on: Drug susceptible M. tuberculosis clinical isolates; type: cell-based, Mycobacterium tuberculosis
[5] = tested on: Escherichia coli MB5747 (LS 883, tolC); experiment: microbe, parasite or virus in culture; type: cell-based; conditions: MHII broth; * = some reduction of growth versus control at […]
[6] = target: T1, S. aureus DnaE (DNA polymerase III α-subunit homolog from Staphylococcus aureus) (Staphylococcus aureus, UniProt Q5HF71); experiment: biochemical; type: biochemical
T1 construct: SaDnaE (S. aureus DnaE residues 1-1065); 6xHis (N); made in house; host or cells: E. coli BL21-AI
T1 sequence (Q5HF71 1-1065): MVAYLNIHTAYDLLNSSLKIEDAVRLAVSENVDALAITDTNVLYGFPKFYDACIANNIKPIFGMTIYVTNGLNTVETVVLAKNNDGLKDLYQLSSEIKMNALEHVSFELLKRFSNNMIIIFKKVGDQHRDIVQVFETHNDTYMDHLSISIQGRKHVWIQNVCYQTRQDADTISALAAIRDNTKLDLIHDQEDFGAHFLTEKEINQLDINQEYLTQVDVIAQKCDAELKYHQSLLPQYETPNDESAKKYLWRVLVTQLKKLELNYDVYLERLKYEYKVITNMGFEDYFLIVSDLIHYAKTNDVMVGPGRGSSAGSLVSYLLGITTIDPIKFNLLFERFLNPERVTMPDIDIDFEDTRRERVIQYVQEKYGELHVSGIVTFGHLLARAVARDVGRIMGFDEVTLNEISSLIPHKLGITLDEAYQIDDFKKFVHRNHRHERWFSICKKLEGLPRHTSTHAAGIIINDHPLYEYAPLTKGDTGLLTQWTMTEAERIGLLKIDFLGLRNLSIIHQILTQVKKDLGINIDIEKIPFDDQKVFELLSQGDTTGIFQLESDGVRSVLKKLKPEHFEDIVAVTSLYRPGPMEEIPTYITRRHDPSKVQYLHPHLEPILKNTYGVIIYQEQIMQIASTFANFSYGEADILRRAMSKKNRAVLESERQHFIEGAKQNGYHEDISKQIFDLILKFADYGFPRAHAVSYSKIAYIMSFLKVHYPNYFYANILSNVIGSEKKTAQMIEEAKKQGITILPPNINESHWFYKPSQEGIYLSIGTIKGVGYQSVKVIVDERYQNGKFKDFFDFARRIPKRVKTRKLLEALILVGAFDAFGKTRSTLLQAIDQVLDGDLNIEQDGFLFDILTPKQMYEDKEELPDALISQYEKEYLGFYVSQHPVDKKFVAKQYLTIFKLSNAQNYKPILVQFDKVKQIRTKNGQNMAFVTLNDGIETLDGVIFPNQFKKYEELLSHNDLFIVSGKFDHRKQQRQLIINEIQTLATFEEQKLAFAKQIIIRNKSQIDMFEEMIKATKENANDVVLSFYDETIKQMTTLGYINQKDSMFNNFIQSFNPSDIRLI
Procedure, shortened: (§1)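 3H-dTTP (0.011 mM) incorporation into DNase I-activated calf thymus DNA, alongside the other three dNTPs at 0.025 mM, measured by filter counting after TCA precipitation. Reactions ran 30 min at 30° C., started with purified N-His DnaE: 0.8 μg/ml for E. coli, 0.05 μg/ml for S. aureus.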

[7] = target: T2, E. coli DnaE (DNA polymerase III α-subunit from Escherichia coli) (Escherichia coli, UniProt P10443); experiment: In vitro DnaE single enzyme assay (E. coli); type: biochemical
T2 construct: EcDnaE (E. coli DnaE residues 1-1160); 6xHis (N); made in house; host or cells: E. coli BL21(DE3)
T2 sequence (P10443 whole entry, the tested form may be a part): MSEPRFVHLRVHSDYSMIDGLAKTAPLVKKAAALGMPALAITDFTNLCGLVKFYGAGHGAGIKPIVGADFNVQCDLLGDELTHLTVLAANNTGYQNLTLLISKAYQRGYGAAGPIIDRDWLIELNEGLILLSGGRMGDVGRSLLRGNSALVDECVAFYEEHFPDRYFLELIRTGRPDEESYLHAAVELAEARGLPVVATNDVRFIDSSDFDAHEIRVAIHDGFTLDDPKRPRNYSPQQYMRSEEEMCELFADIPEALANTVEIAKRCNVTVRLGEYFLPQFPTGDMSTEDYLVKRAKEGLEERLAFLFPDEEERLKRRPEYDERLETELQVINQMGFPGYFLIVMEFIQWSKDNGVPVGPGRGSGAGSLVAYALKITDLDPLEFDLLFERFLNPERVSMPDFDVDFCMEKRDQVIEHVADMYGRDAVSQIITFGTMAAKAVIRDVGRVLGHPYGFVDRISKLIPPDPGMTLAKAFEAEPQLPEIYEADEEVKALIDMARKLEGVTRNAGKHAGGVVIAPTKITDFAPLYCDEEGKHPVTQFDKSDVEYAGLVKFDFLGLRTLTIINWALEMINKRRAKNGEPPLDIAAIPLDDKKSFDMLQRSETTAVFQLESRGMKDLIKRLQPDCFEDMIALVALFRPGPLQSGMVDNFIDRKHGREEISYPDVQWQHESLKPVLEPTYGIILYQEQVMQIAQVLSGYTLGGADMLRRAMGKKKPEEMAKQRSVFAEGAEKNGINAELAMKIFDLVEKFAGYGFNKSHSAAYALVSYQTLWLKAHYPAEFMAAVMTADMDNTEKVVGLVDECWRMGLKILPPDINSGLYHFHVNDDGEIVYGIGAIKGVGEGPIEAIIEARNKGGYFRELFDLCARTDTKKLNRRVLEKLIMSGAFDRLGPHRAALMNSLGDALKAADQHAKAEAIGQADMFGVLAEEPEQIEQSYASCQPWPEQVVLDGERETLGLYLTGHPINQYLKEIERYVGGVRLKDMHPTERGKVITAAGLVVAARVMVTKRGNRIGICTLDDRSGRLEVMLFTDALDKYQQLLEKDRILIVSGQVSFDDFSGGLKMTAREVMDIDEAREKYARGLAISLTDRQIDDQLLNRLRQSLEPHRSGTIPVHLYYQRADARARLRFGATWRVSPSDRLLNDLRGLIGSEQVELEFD
Procedure, shortened: as §1

In the case of `CO[C@H]1C[C@H]2C=CC3C4[C@H](O)[C@@H](C)[C@@H](OC(=O)c5ccc[nH]5)[C@@H]3O[C@]42/C(C)=C/[C@@H](C)[C@@H]([C@@H](C)OC(=O)C(=O)N2CCOCC2)OC1=O` [Example 118], the “S. aureus COL (MIC)” value [1] is reported as 0.5 µg/mL, the “S. pneumoniae MB2883 (MIC)” value [2] is reported as 128 µg/mL and the “P. aeruginosa MB5890 efflux-del (MIC)” value [3] is reported as 32 µg/mL. For the same compound, the “MICs compared with nargenicin” value [4] was “equal to or better than nargenicin”, the “E. coli LS883 tolC (MIC)” value [5] was 1 µg/mL and the “S. aureus DnaE IC50” value [6] was 0.004 µg/mL. The “E. coli DnaE IC50” value [7] was >100 µg/mL.
